First: CC(C)(C)c1cc(-c2csc3nc(-c4ccccc4)c(-c4ccccc4)n23)cc(C(C)(C)C)c1O
Second: CCc1[nH]c(=O)[nH]c1-c1cc(C(C)(C)C)c(O)c(C(C)(C)C)c1
The melting point of the first is lower: 237 to 238 °C for the first, 267 to 270 °C for the second.

Compared with `O=C(O)C1CNc2cc(C(F)(F)F)ccc2O1` (stereo not given), `O=C(O)C1CCc2ccccc2O1` (single isomer, unassigned; (+)) is lower in melting point: 105 to 107 °C for the first, 85.5 °C for the second.

Compared with `Cc1ccc(-c2nc3cc([N+](=O)[O-])ccc3o2)s1`, `Cc1ccc2nc(-n3nc4c(c3O)-c3ccccc3CC4)sc2c1` is higher in melting point: 163 to 165 °C for the first, 218 to 219 °C for the second.

First: COc1ccc(C(=O)N2CCNC2=Nc2c(Cl)cccc2Cl)cc1OC
Second: COc1cccc(Cn2nc(C(=O)O)c3c2-c2ccc(OCc4cncnc4)cc2CC3)c1
The melting point of the first is lower: 201 to 204 °C for the first, 220 to 221 °C for the second.

First: CC1(c2nn(-c3c(Cl)cc(C(F)(F)F)cc3Cl)cc2C#N)CC1(Cl)Cl (stereo not given)
Second: N#Cc1cc(N2CCC(c3cc(Cl)cc(Cl)c3)(C(F)(F)F)C2)ccc1F (stereo not given)
The melting point of the first is lower: 97 to 98.5 °C for the first, 184 to 186 °C for the second.

Compared with `c1ccc2c3ccocc-3nc2c1`, `O=C1c2ccccc2C(=O)N1OCc1ccco1` is higher in melting point: 109 to 111 °C for the first, 145 °C for the second.

First: O=C(Nc1nc[nH]n1)c1ccc(-c2ccc3nnn(Cc4ccc5ncccc5c4)c3n2)cc1F
Second: COc1cc(OCc2cccnc2)ccc1/C=C/c1cc(/C=C/c2cc3ccccc3[nH]2)n[nH]1
The melting point of the first is higher: 265 to 267 °C for the first, 126 to 138 °C for the second.

First: CC(C)[C@H](N)C(=O)OCc1nc2c(N)nc3ccccc3c2n1CCCCNS(C)(=O)=O
Second: CC(=O)CC(C)(C)Cn1c(C)nc2c(N)nc3ccccc3c21
The melting point of the first is lower: 161 to 163 °C for the first, 223 to 225 °C for the second.

Compared with `C=CCNC(=NC#N)NCC=C`, `C=CCn1nc(C)c(CC(=O)O)c1C` is higher in melting point: 66.5 to 67 °C for the first, 139 to 140 °C for the second.

First: CCCCCCCCCN(C[C@H]1CC[C@H](CN(CCCCCCCCC)C(=O)Nc2ccc(N(C)C)cc2)CC1)C(=O)Nc1ccc(N(C)C)cc1
Second: COc1ccc(CCN(C)CCOc2ccc(NC(=O)c3cc(SC)cc4c(=O)c5ccccc5[nH]c34)cc2)cc1OC
The melting point of the first is lower: 96 to 98 °C for the first, 150 °C for the second.

Compared with `N=C(NO)c1ccc(OCCCOc2c(Cl)cc(OCC=C(Cl)Cl)cc2Cl)cc1`, `OCCCc1ccc(OCc2coc(/C=C/c3ccccc3)n2)cc1` is lower in melting point: 144 to 146 °C for the first, 95 to 96 °C for the second.

First: ClCCn1cnc2c(NC3CCCCC3)nc(Cl)nc21
Second: CCN1C(=O)C(C)(C)CCc2c1ccc(Nc1ncc(Cl)c(N[C@@H]3CCCC[C@H]3NS(C)(=O)=O)n1)c2OC
The melting point of the first is higher: 150 to 152 °C for the first, 123 to 126 °C for the second.

Compared with `CC(C)(C)N(Cc1ccccc1)CC(O)c1cc(OCc2ccccc2)cc(OCc2ccccc2)c1` (stereo not given), `Cc1ccccc1P(=NC(=O)OCc1cccnc1)(c1ccccc1)c1ccccc1` is higher in melting point: 78 to 79 °C for the first, 142 to 143 °C for the second.

Compared with `Cn1c(CO)cc2ccccc21`, `Cc1cncc(CC(=O)c2ccccc2)c1` is lower in melting point: 92.8 °C for the first, 53 to 54 °C for the second.

First: CCC(=O)c1cc(C2(c3cccc(-c4cccnc4F)c3)N=C(N)N(C)C2=O)cn1CC(F)(F)F (stereo not given)
Second: CCCc1nn(-c2ccc(C(F)(F)F)cn2)cc1CCCOc1ccc(C(C)(C)C(=O)O)cc1
The melting point of the first is higher: 108 to 110 °C for the first, 84 to 85 °C for the second.

Compared with `Cc1c(CC(C)(C)C(=O)O)n(Cc2ccc(Cl)cc2)c2ccc(OCc3ccc4ccc(Cl)cc4n3)cc12`, `NCCc1ccc(OCCC(c2ccc(Cl)cc2)(c2ccc(Cl)cc2)c2ccc(Cl)cc2)cc1` is higher in melting point: 105 to 107 °C for the first, 132 to 135 °C for the second.

Compared with `COc1ccc(C2CCN(C(=O)C(N)=O)CC2)cc1CC1CCCC1`, `COc1ccc(CNc2n[nH]cc2C(N)=O)cc1OC1CCCC1` is higher in melting point: 117 to 118 °C for the first, 128 to 130 °C for the second.

First: CC(=O)Oc1ccc2scc(C(=O)O)c2c1
Second: COC(=O)Cc1csc2c(O)cccc12
The melting point of the first is higher: 239 to 240 °C for the first, 147 to 148 °C for the second.

`Cc1nc(N)c(C#N)c(NCc2cncc(Br)c2)n1` and `Cn1nc(-c2nc(C#N)c(N)nc2-c2ccccc2)ccc1=O` cannot be ordered by melting point: 283 to 284 °C for the first, > 250 °C for the second.

First: CC(=O)C1CCC2C3CCC4CC(O)C(N5CCSC(C)(C)C5)CC4(C)C3C(=O)CC12C (stereo not given)
Second: Cc1c(N2CCN(Cc3ccccc3)CC2)c(F)cc2c(=O)c(C(=O)O)cn(C3CC3)c12
The melting point of the first is lower: 202 to 203 °C for the first, 209 to 211 °C for the second.

Compared with `CCOP(=O)(/C=C/c1cn(-c2ccccc2)nc1OCc1ccc(OCc2nc(-c3ccccc3)cn2C)c(OC)c1)OCC`, `Cc1ccc(OCc2ccccc2)c2[nH]c(CCc3ccccc3)nc12` is higher in melting point: 144 to 145 °C for the first, 203 to 204 °C for the second.

Compared with `NC1CC2c3ccccc3Cc3ccccc3N2C1=O` (stereo not given), `O=C1CNc2ccccc2N1c1ccc(Cl)cc1` is higher in melting point: 186 to 188 °C for the first, 196 to 199 °C for the second.

First: COc1ccc(Nc2nc(Nc3cc4c(cc3OC)CCN(CC(=O)N(C)C)CC4)ncc2Cl)c(OC)n1
Second: COc1cc(CCNC(=O)N(C)O)cc(OC)c1OC
The melting point of the first is lower: 67 to 76 °C for the first, 100 to 102 °C for the second.

First: CN1C(=O)CC[C@]2(C)c3ccc(Sc4cnccn4)cc3CC[C@@H]12
Second: N#Cc1cn(C2CCc3ccccc3NC2=O)nn1 (stereo not given)
The melting point of the first is lower: 94 to 95 °C for the first, 214 to 216 °C for the second.

First: CCCCc1c2c(nn1C)c(N)nc1ccccc12
Second: Cc1c2c(nc3ccccc13)CCN(C(N)=S)CC2
The melting point of the first is lower: 202 to 203 °C for the first, 218 °C for the second.

First: CC(=O)N(C(C)=O)c1c(I)c(C(=O)Cl)c(I)c(N(C(C)=O)C(C)=O)c1I
Second: CN(C)C(=O)c1ccc([N+](=O)[O-])cc1S(=O)(=O)Cl
The melting point of the first is higher: 231 to 232 °C for the first, 129 to 131 °C for the second.

Compared with `Cn1ncnc1COc1nn2c(C3CC3)nncc2c1-c1ccccc1F`, `CCOc1nc2ccccc2n(-c2ccc(Cl)cc2)c1=O` is higher in melting point: 97 to 99 °C for the first, 244 to 246 °C for the second.

First: CN1C(=O)CN(C(=O)c2ccccc2)N(c2cc(Cl)c(C(C#N)c3ccc(Cl)cc3)c(Cl)c2)C1=O (stereo not given)
Second: O=C(O)C(c1ccc(F)cc1)N1C(=O)c2ccccc2C1=O (stereo not given)
The melting point of the first is lower: 148 °C for the first, 174 to 180 °C for the second.

Compared with `CCOC(=O)Nc1ccc(C(=O)OCC)nc1`, `CCOC(=O)Cn1cc(F)cnc1=O` is lower in melting point: 177 to 178 °C for the first, 121 °C for the second.

Compared with `CC(C)(C)COC(=O)Cc1cccc2c(=O)cc(C3=CCCCC3)oc12`, `CCCC(=O)Cc1cc(OC)ccc1NC(=O)OC(C)(C)C` is lower in melting point: 138 to 139 °C for the first, 77 to 78 °C for the second.

First: O=C1N=c2cc(O)c(O)cc2=NC1=O
Second: COc1nc(C(F)(F)F)cc(=O)n1-c1cc(O)c(Br)cc1F
The melting point of the first is higher: > 350 °C for the first, 132 to 136 °C for the second.

First: NCC1Cc2cc3c(cc2O1)CCCC3 (stereo not given)
Second: Cc1cc2c(cc1C)CC(=O)NC=C2
The melting point of the first is higher: > 225 °C for the first, 220 to 224 °C for the second.

First: N=C(Nc1cc(Cl)cc(NC(=O)/C=C/c2ccccc2C(F)(F)F)c1)c1ccsc1
Second: CC(C)(O)CCOc1ccc(/C=C/C(=O)O)c(Oc2ncc(C(F)(F)F)cc2Cl)c1
The melting point of the first is lower: 121 to 123 °C for the first, 192 to 194 °C for the second.

Compared with `O=C(NC(CCl)c1ccc(-c2ccc(SC(F)F)cc2)cc1)c1c(F)cccc1F` (stereo not given), `CS(=O)(=O)c1ccc(-c2cnn(-c3ccc(F)c(F)c3)c(=O)c2-c2ccc(F)cc2)cc1` is lower in melting point: 146 to 147 °C for the first, 109 to 110 °C for the second.

First: CCc1c2c(nc3cc(F)c(OC)cc13)-c1cc3c(c(=O)n1C2)COC(=O)CC3(O)CC (stereo not given)
Second: CCOC(=O)c1cnn2c1nc(N1CCN(C)CC1)c1cnc3c(cnn3CC)c12
The melting point of the first is higher: > 275 °C for the first, 111 to 113 °C for the second.

First: COc1cc(C(=O)OCc2cc(COC(=O)c3ccc(O)c(OC)c3)cc(COC(=O)c3ccc(O)c(OC)c3)c2)ccc1O
Second: Cc1c(-c2ccccc2)oc2c(C(=O)NCCCN3CCC(C(=O)c4ccc(F)cc4)CC3)cccc2c1=O
The melting point of the first is lower: 161 °C for the first, 181 to 183 °C for the second.

Compared with `CCCc1cnc(NC(=O)C2c3ccccc3Oc3ccccc32)o1`, `NC(=O)C1CN(Cc2nc(-c3ccccc3)c(-c3ccccc3)o2)CCN1CC(=O)Nc1c(Cl)cc(N)cc1Cl` (stereo not given) is lower in melting point: 203 to 205 °C for the first, 137 to 139 °C for the second.

First: C=CCOC(=O)Nc1c(C#N)cnn1-c1ccc(Cl)c(Cl)c1Cl
Second: CC(C)OC(=O)C(C)Oc1ncn(-c2ccc(Cl)cc2Cl)n1 (stereo not given)
The melting point of the first is higher: 154 to 155 °C for the first, 55 to 57 °C for the second.

First: Cc1ccc(S(=O)(=O)OCC2COc3ccc4[nH]ccc4c3O2)cc1 (stereo not given)
Second: COc1ccc2[nH]cc(S(=O)(=O)c3ccccc3)c2c1
The melting point of the first is lower: 145 °C for the first, 151 to 155 °C for the second.

Compared with `CC#CC(C)(C)NC(=O)C(COC)Oc1ccc2ccncc2c1` (stereo not given), `COc1cc2c(cn1)OCC21C(=O)Nc2ccccc21` (stereo not given) is higher in melting point: 155 to 156 °C for the first, 231 to 232 °C for the second.

First: Cc1c(C(=O)O)ccc(S(C)(=O)=O)c1-c1ccon1
Second: CCOC(=O)c1cc2c(C)ccc(NS(=O)(=O)c3cccs3)c2[nH]1
The melting point of the first is lower: 150 to 151 °C for the first, 180 to 181 °C for the second.

First: Nc1cc(Br)cc(Br)c1N
Second: Nc1ncc2c(n1)-c1sc(N)nc1CC2
The melting point of the first is lower: 78 to 80 °C for the first, 293 to 300 °C for the second.

First: Cc1nc(CN(C)C(=O)N[C@H](C(=O)N[C@@H](Cc2ccccc2)C[C@H](O)[C@H](Cc2ccccc2)NC(=O)OCc2cccnc2)C(C)C)cs1
Second: CC(C)C(NC(=O)CCc1cccnc1)C(=O)NC(Cc1ccccc1)C(O)C(O)C(Cc1ccccc1)NC(=O)C(NC(=O)CCc1cccnc1)C(C)C (stereo not given)
The melting point of the first is lower: 69 to 72 °C for the first, 260 to 263 °C for the second.

First: CC(CCn1cnc2ccccc21)NCC(O)COc1ccc(CC(N)=O)cc1 (stereo not given)
Second: Clc1cccc(Nc2ccc(Oc3ccccc3)cc2)n1
The melting point of the first is higher: 139 to 142 °C for the first, 69 to 73 °C for the second.

Compared with `COc1cc2sc(C(=N)NO)cc2c(F)c1OC`, `COc1cc(Sc2ccccc2CCl)ccc1Cl` is lower in melting point: 186 to 190 °C for the first, 57 to 59 °C for the second.

First: CCn1c2ccccc2c2cc(C=C(C#N)c3cc(C(F)(F)F)cc(C(F)(F)F)c3)ccc21
Second: Cn1c2ccc(C=O)cc2c2sc3ccccc3c21
The melting point of the first is lower: 164 to 165 °C for the first, 188 to 190 °C for the second.

Compared with `CC(CF)c1ccc(NC(=O)N(C)C)cc1` (stereo not given), `CNC(=O)CS(=O)(=O)c1ccccc1` is lower in melting point: 145 to 146 °C for the first, 106 to 109 °C for the second.

First: O=CNCc1ncc(-c2ccccc2)o1
Second: CSC(=S)NN=Cc1c[nH]c(-c2ccccc2)n1
The melting point of the first is higher: 225 to 228 °C for the first, 166 to 170 °C for the second.

Compared with `Cc1cc(I)ccc1-n1c(C(F)(F)F)nn(C)c1=S`, `Cc1noc(-c2ncn3c2[C@@H]2CCCN2C(=O)c2c(Br)cccc2-3)n1` is higher in melting point: 104 to 107 °C for the first, 237 to 238 °C for the second.

First: COP(=O)(O)CC(C)=CC(N)C(=O)O (stereo not given)
Second: C#CCn1ccc(C(=O)OC)c1C=O
The melting point of the first is higher: 149 to 150 °C for the first, 76 °C for the second.
